Assay results taken from paper PMC9530963, “A cathelicidin antimicrobial peptide from Hydrophis cyanocinctus inhibits Zika virus infection by downregulating expression of a viral entry factor” (The Journal of Biological Chemistry, 2022).

Assays:
[1] = test system: ZIKV; assay: ZIKV replication stage, Vero cells (peptide added after infection); format: cell-based, ZIKV strain PRVABC59; details: 2.5 μM added after 2 h ZIKV infection (MOI = 1), 48 h, relative to PBS
Protocol: (§1) B–I, Vero (B–G), A549 (H), or U251 (I) cells were incubated with ZIKV (MOI = 1) at 37 °C for 2 h, washed with PBS, and transferred with fresh DMEM containing 2% FBS and Hc-CATH (2.5 μM), AC5 (2.5 μM), LL-37 (2.5 μM), or PBS (solvent of peptide). After culture at 37 °C for 48 h, intracellular ZIKV RNA (B), NS3 protein (C, D, H, and I), E protein level (E, the scale bar represents 50 μm), and extracellular ZIKV titer (F and G) were detected by qPCR, Western blot, immunofluorescence staining, and plaque-forming assay, respectively.
(§2) Vero cells were incubated with ZIKV (MOI = 1) at 37 °C for 2 h, washed three times with PBS, and transferred with fresh DMEM containing 2% FBS and Hc-CATH (2.5 μM), AC5 (2.5 μM), LL-37 (2.5 μM), or PBS. After culture at 37 °C for 48 h, intracellular ZIKV RNA, NS3 protein, E protein, and extracellular ZIKV titer were detected by qPCR, WB, IF, and plaque-forming assay, respectively. The effect of Hc-CATH on ZIKV replication stage was further tested in A549 and U251 cells under the same condition, and intracellular ZIKV NS3 protein was detected by WB.

[2] = test system: ZIKV; assay: ZIKV replication stage, U251 cells (peptide added after infection); format: cell-based, ZIKV strain PRVABC59; details: 2.5 μM after ZIKV infection, 48 h; NS3 Western blot
Protocol: as §1, §2

[3] = test system: ZIKV; assay: Leakage of ZIKV genomic RNA (micrococcal nuclease digestion); set-up: species or system ZIKV strain PRVABC59; details: 1, 20, and 40 μM, 37 °C 2 h; micrococcal nuclease 37 °C 4 h; qPCR of PrM, E, Cap
Protocol: Figure 8 Hc-CATH directly inactivates ZIKV particles by disrupting viral membrane.A, schematic diagram of B–G (Hc-CATH-Vero-pre). B–G, direct inactivation of ZIKV by Hc-CATH. ZIKVs (MOI = 1) were incubated with Hc-CATH (2.5 μM), AC5 (2.5 μM), LL-37 (2.5 μM), or PBS (peptide solvent) at 37 °C for 2 h, and then the ZIKV–PBS mixture and ZIKV–peptide mixture were centrifugated at 100,000g for 70 min. The pellets were washed with PBS and centrifugated at 100,000g for 70 min again. The pellets were resuspended in PBS, added to Vero cells, and incubated for 2 h. Cells were washed with PBS and cultured in fresh DMEM containing 2% FBS. […] Absorbance at 450 nm was measured after reactions were stopped using 0.5 M sulfuric acid. […] After the residual RNase was inactivated, the undigested genomic RNA in the intact ZIKV particles was extracted and quantified by testing the genes of PrM, E, and Cap proteins, respectively. ∗∗p < 0.01 and ∗∗∗p < 0.001.
For assay of the disruption of viral membrane by Hc-CATH, ZIKV (about 10^5 PFU) was incubated with Hc-CATH (1, 20, and 40 μM), PBS, or 1% Triton X-100 (positive control) at 37 °C for 2 h. […] The residual RNase was inactivated, the undigested genomic RNA in the intact ZIKV particles was extracted and quantified by testing viral genes encoding membrane protein (PrM), E protein, and capsid (Cap) protein, respectively ([43]).

[4] = cited from earlier work
From the text: Antimicrobial peptides (AMPs), also called host defense peptides, are a group of relatively small cationic peptides. They are an important part of the innate immune system and play an important role in fighting against bacterial infection ([26]). Recently, more and more studies have shown that AMPs can also exert antiviral effects by inhibiting virus adsorption, disrupting virus envelope, and regulating host antiviral immune response ([27], [28], [29]).

With “KFFKRLLKSVRRAVKKFRKKPRLIGLSTLL [Hc-CATH]” the “intracellular ZIKV RNA, NS3 protein, E protein, extracellular ZIKV titer, peptide maintained after infection” value [1] was “did not reduce”, the “ZIKV infection in U251 cells, peptide added after infection” value [2] was “did not inhibit ZIKV infection” and the “genomic RNA of peptide-treated virions (leakage)” value [3] was “digested by micrococcal nuclease”. For the same sequence, the cytotoxicity [4] was “low cytotoxicity” and the stability [4] was “high stability”.
